Experimental data taken from patent US4758586A, “Indolyl compounds and hyposensitivity use thereof” (USV Pharmaceutical Corp., priority 1986, dated 1988).

How the values were obtained:
[1] = test system: leukotriene C4 -induced contraction of guinea pig peripheral strips; assay: SRS-A antagonists (SALTI): leukotriene C4-induced contraction of guinea pig peripheral lung strips; details: Cavia porcellus; 0.2 μM leukotriene C4-induced contraction; read-out: SALTI, I50 μM
Method: Protocol for SRS-A (Slow-reacting Substance of Anaphylaxis Antagonists (SALTI)
Peripheral strips of guinea pig lungs are prepared and hung in tissue baths (Metro #ME-5505, 10 ml) according to the published procedure (Pro. Nat'l. Acad. Sci., U.S.A. Volume 77, pp. 4354-4358, 1980). The strips are thoroughly rinsed in Assay Buffer and then connected with surgical silk thread to the support rods from the tissue baths. The rods are adjusted in the baths and the strips connected to the pressure transducers (Grass FT 103 or Gould UC-3). The tissue baths are aerated with 95% oxygen 5% carbon dioxide and maintained at 37° C. The Assay Buffer has been made as follows: For each liter of buffer the following are added to approximately 800 ml of water distilled in glass--6.87 g. NaCl, 0.4 g. KCl, […]. NaHCO3, 0.14 g. NaH2 PO4.H2 O, 0.21 g. MgSO4.7H2 O, and 2.0 g. D-glucose. Then a solution of 0.368 g. CaCl2.2H2 O in 100 ml glass-distilled water is slowly added to the buffer. Sufficient water is added to adjust the volume to one liter, and the solution is aerated with 95% oxygen--5% carbon dioxide. Usually 10 liters of buffer are used for an experiment with 4 tissues.
After the tissues have been repeatedly washed and allowed to equilibrate in the tissue bath, they are challenged with 1 μM histamine. After maximum contractions have been obtained, the tissues are washed, and allowed to relax back to baseline tension. This histamine challenge procedure is repeated at least 1 to 2 more times to obtain a repeatable control response. The average response to 1 μM histamine for each tissue is used to normalize all other challenges.
Responses of each tissue to a predetermined concentration of leukotriene are then obtained. Usually test compounds are examined initially at 30 μM on resting tension of the tissues without any added agonist or antagonist to determine if the compound has any possible intrinsic activity. The tissues are washed, and the test compound is added again. Leukotriene is added after the desired pre-incubation time. The intrinsic activity of the compounds, and their effect on leukotriene-induced contractions are then recorded.
The concentration required for 50% inhibition of 0.2 μM leukotriene C4 -induced contraction of guinea pig peripheral strips for representative compounds of the present invention is shown in Table 3.

[2] = target: T1, Phospholipase A2 (PLA2) (Rattus norvegicus, UniProt P14423); assay: In vitro assay for inhibitors of Phospholipase A2 (PLA2) from rat platelets; type: biochemical; details: pH 7.2, 37° C.; read-out: PLA2, I50
T1 construct: obtained by aggregation of purified rat platelets; from tissue; host or cells: rat platelets (enzyme obtained by aggregation)
T1 sequence (P14423 22-146): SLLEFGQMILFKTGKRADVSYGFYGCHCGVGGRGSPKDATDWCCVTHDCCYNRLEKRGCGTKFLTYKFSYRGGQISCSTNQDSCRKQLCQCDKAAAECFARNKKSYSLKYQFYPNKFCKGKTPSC
Description: B. In Vitro Assay For Inhibitors of Phospholipase A2 Assayed at pH 7.0 (PLA2)
The PLA2 employed in this screen is obtained by aggregation of purified rat platelets. In the enzyme assay phosphatidylcholine having ^14 C-labeled palmitate residues at R1 and R2 is employed as substrate. PLA2 acts by cleaving the R2 fatty acid ester bond yielding free fatty acid and lysophosphatidyl choline as follows: [drawing 19]
Following completion of the reaction, the assay medium is acidified and extracted with hexane, which takes up unreacted substrate and free fatty acid product. The hexane extract is passed over a short silica column which retains 99% of the phosphatidyl choline. The ^14 C-labeled palmitic acid is not retained (90% recovery in eluate) and is collected directly in scintillation counting vials. The released palmitic acid is conveniently quantitated by liquid scintillation spectrometry.
The compounds were tested at 100 uM in a buffer containing 0.3 mM unlabeled phosphatidylcholine (PC), 20-30,000 cpm of ^14 C(CPC), […], 1 mM CaCl2 and 50 mM tris-HCl adjusted to pH 7.2 with 1N NaOH. […] The temperature of the buffer was maintained at a temperature of 37° C. The reaction was initiated by addition of the enzyme and it was terminated 30 minutes later by the addition of […] of 1N HCl.
Following acidification, the samples were extracted with 2 ml of 2-propanol and 2 ml of hexane, vortexed and allowed to stand until the phases separated. Free fatty acids (FFA) and some unreacted substrate were taken up in the isopropanol-saturated hexane. The hexane phase of the extraction mixture was transferred to a short silica gel column which retained […] but not the FFA. The column effluent was collected directly in scintillation vials. The columns were washed once with an additional 2 ml of hexane. The radio labeled FFA were quantitated by liquid scintillation spectrometry.

With `CCC(=CC=Cc1cn(Cc2ccccc2)c2ccccc12)C(=O)O` [Example 9, 5-(1-Benzylindol-3-yl)-2-Ethyl-2,4-Pentadienoic Acid] the IC50 [1] was 18 µM and the IC50 [2] was 47 µM.
